Source: patent publication US20120301895A1, “METHODS OF MODULATING BINDING OF SON OF SEVENLESS TO PHOSPHATIDIC ACID AND IDENTIFYING COMPOUNDS THAT MODULATE SUCH BINDING” (THE RESEARCH FOUNDATION OF STATE UNIVERSITY OF NEW YORK, priority 2007, published 2012)
Substitutions are numbered along the chain they refer to.

Columns and labels:
[1] = target: T1, Sos-PH (Homo sapiens, UniProt Q07889); assay: PA-induced plasma membrane translocation of GFP-tagged Sos-PH in COS-1 cells (fluorescence microscopy); assay type: cell-based, African green monkey; conditions: membrane-permeable PA 100 μM, 20 min, serum-starved COS-1 cells, wild-type Sos-PH
T1 construct: expressed in transfected cells; host or cells: COS-1
T1 sequence (Q07889 422-551): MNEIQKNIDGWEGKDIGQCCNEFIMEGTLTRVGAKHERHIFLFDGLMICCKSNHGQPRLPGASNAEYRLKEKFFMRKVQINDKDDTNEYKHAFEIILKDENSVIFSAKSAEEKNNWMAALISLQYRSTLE
Description: (§1) In FIG. 6A, COS-1 cells were transfected with GFP-tagged constructs of Sos-PH or Sos-PH-HR/EE. The cells were serum-starved and then treated with PA (100 μM) for 20 min. In FIG. 6B, COS-1 cells were transfected with HA-tagged Sos-ΔC or Sos-ΔC-HR/EE. The cells were serum-starved and then stimulated with serum (20%) for 10 min. For FIGS. 6A-B, the fluorescence staining patterns were analyzed through the acquisition of serial optical Z sections. The images shown represent single 0.25 μm optical sections acquired at the mid plane of the cells with the same exposure time. Membrane localization is reflected by the relative increase in fluorescence intensity at the cell periphery (arrowheads). The boxed areas are enlarged on the top and bottom of the corresponding images. The number of cells displaying plasma membrane localization of the protein is expressed as percentage of the total number of cells scored and normalized to the maximal value obtained for each experiment. […] Results are the mean+/−s.d. of three independent experiments with at least 100 cells scored in each experiment. Scale bars represent 20 μm in all panels. In FIGS. 6C-D, COS-1 cells were co-transfected with HA-tagged Ras and the indicated HA-tagged Sos-ΔC constructs. […] Ras activation was measured by the RBD pull-down assay as described in the Examples. […]

[2] = target: T2, Sos-PH (Homo sapiens, UniProt Q07889, H475E/R479E); assay: as above; assay type: cell-based, African green monkey; conditions: membrane-permeable PA 100 μM, 20 min, serum-starved COS-1 cells
T2 construct: expressed in transfected cells; host or cells: COS-1
T2 sequence (Q07889 422-551 H475E/R479E): T1 sequence (Q07889 422-551) with H54E, R58E
Description: as §1

[3] = tested on: Ras; assay: Ras activation by Sos-ΔC after PA treatment, RBD pull-down in COS-1 cells; assay type: cell-based; conditions: membrane-permeable PA 100 μM, serum-starved COS-1 cells
Description: as §1, with “The boxed areas are enlarged on the top and bottom of the corresponding images.” left out, “experiment.” for “experiment. Scale bars represent 20 μm in all panels. In FIGS. 6C-D, COS-1 cells were co-transfected with HA-tagged Ras and the indicated HA-tagged Sos-ΔC constructs.”
The levels of Ras-GTP were determined by the GST-RBD pull down assay as described previously (Boykevisch et al., “Regulation of Ras Signaling Dynamics by Sos-mediated Positive Feedback,” Curr. Biol. 16:2173-2179 (2006), which is hereby incorporated by reference in its entirety). […]

[4] = tested on: HIF2α; assay: HIF2α expression in 786-O cells (Western blot); assay type: cell-based, human; conditions: 0.5% serum, 4 hr, honokiol 20 μM, 1-BtOH 0.8%
Description: In FIG. 15B, 786-O cells were plated and then shifted to media containing 0.5% serum 24 hr later. 18 hr later, the cells were treated with 1-Bt0H (0.8%), honokiol (Hon) (20 μM), and t-BtOH (0.8%) as indicated. Cell lysates were prepared 4 hr later and examined for HIF2α and actin expression by Western lot analysis. The experiment shown is representative of two independent experiments.
Extraction of proteins from cultured cells and Western blot analysis of extracted proteins was performed using the ECL system (Amersham) as described previously (Chen et al., “Alternative Phospholipase D/mTOR Survival Signal in Human Breast Cancer Cells,” Oncogene 24:672-9 (2005), which is hereby incorporated by reference in its entirety).
The effect of honokiol on HIF2α expression was examined in these cells.

Sos-PH translocation to the plasma membrane [1]	plasma membrane recruitment of Sos-PH-HR/EE [2]	Structure (SMILES)	Ras activation by SosΔC [3]	level of active Ras in cells expressing SosΔC-HR/EE [3]	HIF2α expression [4]
stimulated	failed to induce	CCCCCCCCCCCC(=O)OC[C@H](COP(=O)(O)O)OC(=O)CCCCCCCCCCC [PA, 1,2-Dilauroyl-sn-Glycero-3-Phosphate]	sufficed to induce	did not increase	
		CCCCO [1-butanol]			suppressed
